From the supplement of paper PMC4862054

Experiments:
Test in all cases: normalised response (% of control), CellTiter-Glo; higher = more viable cells (100 = DMSO, 0 = benzethonium chloride kill control)
Details in all cases: incubation time: 72 h
[1] = system: CAL-148
In short: (§1)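 Values are normalised signals, each belonging to one concentration of the series. Breast cancer cells (20 µl suspension) were seeded into 384-well plates with compound at 5 concentrations in 10-fold steps over a compound-specific 10,000-fold range and incubated 72 h. Readouts were CellTox Green fluorescence (485/520 nm), then CellTiter-Glo luminescence after 10 min at room temperature, with each plate set to 0.1 % DMSO as 100 and a positive kill control as 0.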

[2] = system: SK-BR-3
In short: as §1

[3] = system: BT-549
In short: as §1

[4] = system: MDA-MB-231
In short: as §1

[5] = system: DU-4475
In short: as §1

[6] = system: HCC1599
In short: as §1

[7] = system: Hs578T
In short: as §1

[8] = system: HDQ-P1
In short: as §1

[9] = system: BT-474
In short: as §1

[10] = system: CAL-120
In short: as §1

[11] = system: CAL-51
In short: as §1

[12] = system: MDA-MB-453
In short: as §1

[13] = system: HCC1143
In short: as §1

[14] = system: MDA-MB-436
In short: as §1

[15] = system: CAL-85-1
In short: as §1

[16] = system: MFM-223
In short: as §1

[17] = system: MDA-MB-468
In short: as §1

[18] = system: MCF-10A
In short: as §1

[19] = system: HCC1937
In short: as §1

| SMILES | normalised response [1] | normalised response [2] | normalised response [3] | normalised response [4] | normalised response [5] | normalised response [6] | normalised response [7] | normalised response [8] | normalised response [9] | normalised response [10] | normalised response [11] | normalised response [12] | normalised response [13] | normalised response [14] | normalised response [15] | normalised response [16] | normalised response [17] | normalised response [18] | normalised response [19] |
| --- | --- | --- | --- | --- | --- | --- | --- | --- | --- | --- | --- | --- | --- | --- | --- | --- | --- | --- | --- |
| CCOC(=O)CCNc1cc(N2CCc3ccccc3CC2)nc(-c2ccccn2)n1 [GSK-J4] (100 nM) | 101% | 68.8% | 93.8% | 92.8% | 95.3% | 95.5% | 105% | 93.1% | 95.7% | 110% | 97.8% | 84.8% | 97.6% | 92.6% | 100% | 103% | 95.5% | 97.3% | 95.2% |
| COCC[n+]1c2c(n(Cc3cnccn3)c1C)C(=O)c1ccccc1C2=O [YM155] (10 nM) | 85% | 69.8% | 91.5% | 37.6% | 101% | 43.3% | 95.2% | 79.8% | 25.6% | 7.43% | 77.8% | 66.2% | 56.4% | 26.6% | 31.8% | 75.3% | 11.8% | 88.1% | 55.7% |
| COC(=O)c1ccc2c(c1)NC(=O)/C2=C(\Nc1ccc(N(C)C(=O)CN2CCN(C)CC2)cc1)c1ccccc1 [Nintedanib] (1 nM) | 110% | 101% | 97.6% | 98.7% | 101% | 103% | 95.9% | 102% | 98% | 104% | 121% | 120% | 97.1% | 101% | 99.1% | 99.1% | 110% | 103% | 97.7% |
| COc1cc(O)c2c(c1)/C=C/C[C@H](O)[C@H](O)C(=O)/C=C\C[C@H](C)OC2=O [(5Z)-7-Oxozeaenol] (1 nM) | 104% | 105% | 109% | 103% | 96.6% | 91.8% | 99.9% | 105% | 97.9% | 99.8% | 93.9% | 106% | 106% | 98% | 95.2% | 108% | 98% | 109% | 98.7% |
| Nc1cc(C(F)(F)F)c(-c2cc(N3CCOCC3)nc(N3CCOCC3)n2)cn1 [Buparlisib] (10 nM) | 97% | 110% | 100% | 103% | 97.1% | 108% | 98.4% | 99% | 97.3% | 104% | 113% | 104% | 97.2% | 101% | 96.5% | 97.3% | 101% | 98.2% | 93.3% |
| O=P1(N(CCCl)CCCl)NCCCO1 (stereo not drawn) [Cyclophosphamide] (40 nM) | 104% | 91% | 97.9% | 99.9% | 106% | 98.2% | 106% | 98.4% | 100% | 96.8% | 79.3% | 106% | 105% | 99.1% | 98.7% | 100% | 101% | 102% | 95.6% |
| CCOC(=O)CCNc1cc(N2CCc3ccccc3CC2)nc(-c2ccccn2)n1 [GSK-J4] (10 nM) | 92.8% | 97.9% | 101% | 95.1% | 99% | 104% | 97% | 97.4% | 97.3% | 102% | 102% | 91.9% | 92.6% | 95.8% | 93.1% | 99.4% | 97.8% | 102% | 93.1% |
| CNC(=O)c1cccc(-c2ccc3c(N4CCOC[C@@H]4C)nc(N4CCOC[C@@H]4C)nc3n2)c1 [AZD2014] (1 nM) | 111% | 115% | 102% | 108% | 99.4% | 92% | 101% | 98% | 97.5% | 98.4% | 125% | 105% | 104% | 89.7% | 95% | 106% | 103% | 114% | 101% |
| CNC(=O)c1cc(Oc2ccc(NC(=O)Nc3ccc(Cl)c(C(F)(F)F)c3)c(F)c2)ccn1 [Regorafenib] (10 nM) | 109% | 110% | 106% | 95.2% | 105% | 108% | 101% | 102% | 111% | 94% | 108% | 117% | 100% | 104% | 100% | 101% | 97.9% | 113% | 96% |
| COc1cc2/c(=N/c3ccc(Br)cc3F)nc[nH]c2cc1OCC1CCN(C)CC1 [Vandetanib] (0.1 nM) | 76.8% | 78% | 105% | 97.3% | 91% | 82.4% | 98.6% | 93.2% | 89.3% | 90.8% | 115% | 93.6% | 88.7% | 80.6% | 90.3% | 85.2% | 93.2% | 72.8% | 88.2% |
| S=P(N1CC1)(N1CC1)N1CC1 [Thio-TEPA] (50 nM) | 94.2% | 91.5% | 100% | 96.6% | 103% | 101% | 99.1% | 94.7% | 97% | 93% | 71.5% | 98% | 95.7% | 98.5% | 98.7% | 106% | 95.3% | 103% | 101% |
| CNC(=O)c1cccc(-c2ccc3c(N4CCOC[C@@H]4C)nc(N4CCOC[C@@H]4C)nc3n2)c1 [AZD2014] (10 nM) | 106% | 99% | 96.8% | 97.7% | 104% | 115% | 104% | 98.8% | 99.5% | 93.5% | 105% | 101% | 99.8% | 98.5% | 97.6% | 106% | 104% | 111% | 101% |
| COc1cc2ncnc(Nc3ccc(F)c(Cl)c3)c2cc1OCCCN1CCOCC1 [Gefitinib] (10 nM) | 105% | 107% | 98.6% | 98% | 100% | 89.5% | 103% | 97% | 100% | 96.2% | 103% | 108% | 98.1% | 103% | 96.6% | 108% | 95.9% | 95.6% | 98.3% |
| O=C(/C=C/c1cccc(S(=O)(=O)Nc2ccccc2)c1)NO [Belinostat] (10 nM) | 85.7% | 68.9% | 101% | 98.5% | 97.2% | 96.5% | 94.3% | 88.5% | 98.2% | 96.9% | 80.2% | 97.1% | 99.2% | 91% | 93.8% | 88.5% | 105% | 96% | 94.8% |
| CN(C)c1nc(N(C)C)nc(N(C)C)n1 [Altretamine] (10 nM) | 109% | 113% | 100% | 101% | 100% | 103% | 110% | 98.9% | 101% | 97.9% | 101% | 115% | 105% | 96.5% | 101% | 109% | 104% | 109% | 99.3% |
| C=C1C[C@@H]2[C@H](CC[C@]3(C)C(=O)CC[C@@H]23)[C@@]2(C)C=CC(=O)C=C12 [Exemestane] (10 nM) | 109% | – | 98% | 106% | 106% | 99.1% | 99.7% | 98.9% | 21% | 98% | 70.2% | 116% | 99.7% | 104% | 108% | 108% | 109% | 116% | 103% |
| O=C(Nc1ccncc1)C(=O)c1cn(Cc2ccc(Cl)cc2)c2ccccc12 [Indibulin] (10 nM) | 109% | – | 93.5% | 104% | 105% | 93.4% | 104% | 94.1% | 112% | 92.6% | 86.5% | 95% | 100% | 99.2% | 99.9% | 107% | 102% | 102% | 98.2% |
| COCC1(CO)C(=O)C2CCN1CC2 (stereo not drawn) [Prima-1 Met] (10 nM) | 102% | – | 93.7% | 103% | 109% | 92.7% | 103% | 95.1% | 103% | 92.4% | 124% | 111% | 103% | 101% | 103% | 103% | 102% | 107% | 99% |
| Cc1cc(Nc2cc(CN3CCOCC3)c3nc(C)c(Cc4ccc(Cl)cc4F)n3n2)n[nH]1 [Gandotinib] (10 nM) | 110% | – | 100% | 102% | 104% | 118% | 99.5% | 106% | 106% | 98.2% | 92% | 99.3% | 102% | 104% | 101% | 105% | 101% | 108% | 94.2% |
| Cc1[nH]c2ccccc2c1CCNCc1ccc(/C=C/C(=O)NO)cc1 [Panobinostat] (1 nM) | 101% | – | 101% | 102% | 99.1% | 100% | 98.7% | 102% | 103% | 101% | 118% | 92.8% | 104% | 107% | 104% | 100% | 103% | 99.9% | 96.5% |
| Cc1ccc(NC(=O)c2ccc(CN3CCN(C)CC3)cc2)cc1Nc1nc(-c2cccnc2)cs1 [Masitinib] (10 nM) | 108% | – | 101% | 100% | 102% | 93.8% | 98.8% | 93.6% | 102% | 91.5% | 99.4% | 113% | 98.4% | 101% | 99.7% | 105% | 108% | 104% | 97.4% |
